Test results reported in article PMC10488055, “Investigation of Potential cGMP-Specific PDE V and Aminopeptidase N Inhibitors of Allium ampeloprasum L. and Its Bioactive Components: Kinetic and Molecular Docking Studies” (International Journal of Molecular Sciences, 2023).
Read-outs that look alike come from different tables or passages of the source.

Key:
APN [1] = biological target: T1, APN (Homo sapiens, UniProt P15144); parameters: method as in doi:10.1101/2021.02.26.433103; conditions: interacts with ALA474, ASP473, and SER476; cited from earlier work
T1 construct: purchased Sigma-Aldrich

aminopeptidase N (APN) = biological target: T2, aminopeptidase N (APN) (Homo sapiens, UniProt P15144); assay: Aminopeptidase N (APN) enzyme activity assay with L-p-NA substrate; assay type: biochemical
T2 construct: purchased Sigma-Aldrich
Procedure: Figure 2 Effects of AAE and AAE-derived compounds on APN activity. […] The reaction was started by adding 20 μL enzyme solution (1 mU) and incubated for 60 min at 37 °C. The absorbance of samples were measured at 405 nm to determine the formation of p-nitroaniline. Each value is the mean ± SD of triplicate measurements. * p < 0.05 and ** p < 0.01, compared to each control group (Con). Con, control group treated enzyme only.
The activity of APN was determined according to Melzig et al.. Briefly, the enzyme substrate L-p-NA (2 mM) was dissolved in 50 mM N-(2-hydroxyethyl)piperazine-N’-2ethansulfonic acid (HEPES) buffer (pH 7.4) containing 154 mM NaCl. […] The reaction was started by adding 20 μL enzyme solution (approximately 1 mU in HEPES-buffer) and incubated for 60 min at 37 °C. The samples were measured spectrophotometrically at 405 nm to determine the formation of p-nitroanilmne. APN inhibitory activity (%) = ([Absorbance control without sample − Absorbance control with sample]/Absorbance control without sample) × 100

APN [2] = biological target: T1, APN; assay: Kinetic assay (Lineweaver–Burk) on APN; assay type: biochemical; conditions: for Ki: APN
Procedure: (§1) Lineweaver–Burk plots were employed to analyze the inhibition of the target enzyme. These plots were represented as 1/velocity (1/V) versus 1/substrate concentration (1/(S)) in the presence or absence of each sample (non-treated (black circle), 10 μg or 1 mM (blue circle), 20 μg or 2 mM (green circle), 50 μg or 5 mM (orange circle), and 100 μg or 10 mM (purple circle)) as an inhibitor against APN.
(§2) These reactions were conducted in a total volume of 80 μL. by a previously described method. The Michaelis–Menten constant (Km) and maximal velocity (Vmax) were calculated using the x and y intercepts, respectively. […] Additionally, the Kik and Kiv inhibition constants were calculated using previously described methods.

PDE5 = PDE5 (Homo sapiens, UniProt O76074); assay: Kinetic assay (Lineweaver–Burk) on PDE5; assay type: biochemical; parameters: Vmax / Kcat: unit of the concentration uncertain;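 as to Kcat: pure compound doses in mM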
Procedure: as §1, with “(1/[S])” for “(1/(S))”, “(orange” for “(blue”, “(silver” for “(green”, “(yellow” for “(orange”, “(blue” for “(purple”, “PDE5.” for “APN.”
as §2

[3] = APN treated with compound 10 mM
[4] = PDE5 treated with compound 1 (unit uncertain)
[5] = PDE5 treated with compound 2 (unit uncertain)
[6] = PDE5 treated with compound 5 (unit uncertain)
[7] = PDE5 treated with compound 10 (unit uncertain)

T2 sequence (P15144 whole entry, species assumed): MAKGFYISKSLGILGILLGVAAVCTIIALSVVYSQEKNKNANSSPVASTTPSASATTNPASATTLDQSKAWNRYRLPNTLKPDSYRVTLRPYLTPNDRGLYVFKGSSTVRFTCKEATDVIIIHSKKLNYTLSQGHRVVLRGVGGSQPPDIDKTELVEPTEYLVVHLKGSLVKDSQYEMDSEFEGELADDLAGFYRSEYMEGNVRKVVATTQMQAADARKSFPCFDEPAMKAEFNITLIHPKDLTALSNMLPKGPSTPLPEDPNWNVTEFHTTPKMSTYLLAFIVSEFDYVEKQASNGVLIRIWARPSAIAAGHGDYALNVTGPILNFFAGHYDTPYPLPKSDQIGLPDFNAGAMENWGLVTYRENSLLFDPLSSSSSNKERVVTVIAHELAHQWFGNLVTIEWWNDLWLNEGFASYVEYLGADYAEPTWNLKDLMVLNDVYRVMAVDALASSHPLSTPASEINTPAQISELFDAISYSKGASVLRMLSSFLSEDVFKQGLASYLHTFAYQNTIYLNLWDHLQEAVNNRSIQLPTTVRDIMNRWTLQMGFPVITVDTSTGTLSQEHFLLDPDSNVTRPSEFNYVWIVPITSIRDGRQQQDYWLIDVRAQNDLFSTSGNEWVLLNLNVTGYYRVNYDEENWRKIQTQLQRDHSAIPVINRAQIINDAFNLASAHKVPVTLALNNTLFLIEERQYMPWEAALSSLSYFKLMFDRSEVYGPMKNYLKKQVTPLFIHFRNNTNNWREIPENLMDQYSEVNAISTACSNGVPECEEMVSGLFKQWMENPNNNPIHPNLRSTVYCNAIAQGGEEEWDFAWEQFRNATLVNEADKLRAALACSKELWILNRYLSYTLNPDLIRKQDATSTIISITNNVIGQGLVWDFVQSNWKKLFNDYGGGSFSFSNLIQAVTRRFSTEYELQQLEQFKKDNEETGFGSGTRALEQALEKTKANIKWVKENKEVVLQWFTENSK
T1 sequence (P15144 whole entry, species assumed): as above

In the case of `O=c1c(O)c(-c2ccc(O)c(O)c2)oc2cc(O)cc(O)c12` [QUE, quercetin], the “interaction energy with APN (docking)” value (APN [1]) is given as -6.9 kcal/mol, the IC50 (aminopeptidase N (APN)) is given as > 10 mM and the “inhibition of APN in in vitro enzyme assay” value (aminopeptidase N (APN); at the highest concentration) is given as 33%. The “enzymatic activity of APN” value (aminopeptidase N (APN); treatment with 10 mM, without sample 0.38 U) was 0.25 ± 0.01 U, the Kcat (APN [2]; APN treated with compound 1 mM) was 368.1 ± 6.2 s⁻¹ and the Vmax (APN [2]; APN treated with compound 1 mM) was 0.297 ± 0.005 mU/min. It also gave a Kcat (APN [2]; APN treated with compound 2 mM) of 316.6 ± 7.4 s⁻¹, a Vmax (APN [2]; APN treated with compound 2 mM) of 0.255 ± 0.006 mU/min and a Kcat (APN [2]; APN treated with compound 5 mM) of 244.1 ± 3.7 s⁻¹. It also gave a Vmax (APN [2]; APN treated with compound 5 mM) of 0.197 ± 0.003 mU/min, a Kcat (APN [2]; [3]) of 212.3 ± 2.5 s⁻¹ and a Vmax (APN [2]; [3]) of 0.171 ± 0.002 mU/min. The Ki (APN [2]; calculated by method of ref 27, read-out: Kiv) was 11.8 mM, the Ki (APN [2]; read-out: Ki) was 13.2 mM and the “inhibition type against APN” value (APN [2]; from Kik/Kiv ratio, new decision system [27]) was “noncompetitive-type”. For the same compound, the “Vmax value of APN, fold of non-treated group” value (APN [2]; highest concentration, non-treated 0.316 mU/min = 1.0-fold) was 0.54 fold, the Kik/Kiv (PDE5; PDE5, ratio according to Yang et al. [27]) was 9.4 and the Kcat (PDE5; [4]) was 5473 ± 234 k s^−1. For the same compound, the Vmax (PDE5; [4]) was 0.724 ± 0.031 mU/min, the Kcat (PDE5; [5]) was 5187 ± 166 k s^−1 and the Vmax (PDE5; [5]) was 0.686 ± 0.022 mU/min. It also gave a Kcat (PDE5; [6]) of 2893 ± 60 k s^−1, a Vmax (PDE5; [6]) of 0.383 ± 0.008 mU/min and a Kcat (PDE5; [7]) of 1478 ± 38 k s^−1. The Vmax (PDE5; [7]) was 0.195 ± 0.005 mU/min, the “inhibition type against PDE5” value (PDE5; from changes of Km and 1/Vmax (Lineweaver–Burk), putative decision system [27]) was “uncompetitive-type” and the “Km value of PDE5, fold of non-treated” value (PDE5; highest concentration) was 0.69 fold. For the same compound, the “Vmax value of PDE5, fold of non-treated group” value (PDE5; highest concentration, non-treated 1.039 mU/min = 1.0-fold) was 0.19 fold.
